“And” between values parts separate entries of the source, which are not always exact repeats. Equal values may be shown once. Toxic doses and inconclusive results are not listed.
System: L1210 leukemia ip in BDF1 mice, survival T/C
Test: NCI In Vivo Anticancer Drug Screen. Data for tumor model L1210 Leukemia (intraperitoneal) in B6D2F1 (BDF1) mice
Details: endpoint: mean survival time, higher = longer survival
Procedure, shortened: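 Ratio derived from survival: compound-dosed mice over vehicle-dosed mice, all bearing a transplantable tumor.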

[1] = dose: 100.0 mg/kg/injection, schedule: Q01DX001 (ip), vehicle: saline
[2] = dose: 200.0 mg/kg/injection, schedule: Q01DX001 (ip), vehicle: saline
[3] = dose: 400.0 mg/kg/injection, schedule: Q01DX001 (ip), vehicle: saline
[4] = dose: 25.0 mg/kg/injection, schedule: Q04DX003 (ip), vehicle: saline
[5] = dose: 50.0 mg/kg/injection, schedule: Q04DX003 (ip), vehicle: saline
[6] = dose: 100.0 mg/kg/injection, schedule: Q04DX003 (ip), vehicle: saline
[7] = dose: 50.0 mg/kg/injection, schedule: Q04DX003 (ip), vehicle: Klucel (hydroxypropylcellulose) (HPC)
[8] = dose: 100.0 mg/kg/injection, schedule: Q04DX003 (ip), vehicle: Klucel (hydroxypropylcellulose) (HPC)
[9] = dose: 200.0 mg/kg/injection, schedule: Q04DX003 (ip), vehicle: Klucel (hydroxypropylcellulose) (HPC)

SMILES: CC(=O)OCC(=O)C1CCC2(C)C3=C(CCC12C)C1(C)CCC(=O)C(C)(C)C1CC3 (configuration not stated)
- T/C (dose: 50.0 mg/kg/injection, schedule: Q01DX001 (sc), vehicle: steriod suspending solution): 105 % of control
- T/C (dose: 100.0 mg/kg/injection, schedule: Q01DX001 (sc), vehicle: steriod suspending solution): 94 % of control
- T/C (dose: 200.0 mg/kg/injection, schedule: Q01DX001 (sc), vehicle: steriod suspending solution): 100 % of control
- T/C (dose: 400.0 mg/kg/injection, schedule: Q01DX001 (sc), vehicle: steriod suspending solution): 100 % of control

SMILES: CCCNC(=O)/C=C\C(=O)O
- T/C [1]: 108 % of control
- T/C (dose: 100.0 mg/kg/injection, schedule: Q01DX009 (ip), vehicle: saline): 93 % of control
- T/C [2]: 101 % of control
- T/C (dose: 200.0 mg/kg/injection, schedule: Q01DX009 (ip), vehicle: saline): 90 % of control
- T/C [3]: 106 % of control
- T/C (dose: 400.0 mg/kg/injection, schedule: Q01DX009 (ip), vehicle: saline): 95 % of control

SMILES: COC(=O)C1Cc2c([nH]c3ccccc23)CN1 (configuration not stated)
- T/C (dose: 9.0 mg/kg/injection, schedule: Q01DX009 (ip), vehicle: saline): 95 % of control
- T/C (dose: 9.0 mg/kg/injection, schedule: Q04DX003 (ip), vehicle: saline): 100 % of control
- T/C (dose: 18.0 mg/kg/injection, schedule: Q01DX009 (ip), vehicle: saline): 101 % of control
- T/C (dose: 18.0 mg/kg/injection, schedule: Q04DX003 (ip), vehicle: saline): 98 % of control
- T/C (dose: 37.0 mg/kg/injection, schedule: Q01DX009 (ip), vehicle: saline): 105 % of control
- T/C (dose: 37.0 mg/kg/injection, schedule: Q04DX003 (ip), vehicle: saline): 93 % of control

SMILES: O=C(O)C1CCC(=O)C2CCCCC12 (configuration not stated)
- T/C [1]: 97 % of control
- T/C [2]: 94 % of control
- T/C [3]: 95 % of control

SMILES: N#CNN=Nc1cc(Cl)c(Cl)c(Cl)c1
- T/C (dose: 12.0 mg/kg/injection, schedule: Q01DX009 (ip), vehicle: saline): 101 % of control
- T/C (dose: 25.0 mg/kg/injection, schedule: Q01DX009 (ip), vehicle: saline): 109 % of control
- T/C [4]: 105 % of control
- T/C (dose: 50.0 mg/kg/injection, schedule: Q01DX009 (ip), vehicle: saline): 97 % of control and 104 % of control
- T/C [5]: 98 % of control
- T/C [6]: 91 % of control

SMILES: O=C(/C=C(\C(=O)c1ccccc1)c1ccccc1)c1ccccc1
- T/C [7]: 95 % of control
- T/C [1]: 92 % of control
- T/C (dose: 100.0 mg/kg/injection, schedule: Q01DX009 (ip), vehicle: Klucel (hydroxypropylcellulose) (HPC)): 95 % of control
- T/C [8]: 101 % of control
- T/C (dose: 200.0 mg/kg/injection, schedule: Q01DX001 (ip), vehicle: saline with Tween-80): 90 % of control
- T/C [2]: 95 % of control
- T/C (dose: 200.0 mg/kg/injection, schedule: Q01DX009 (ip), vehicle: Klucel (hydroxypropylcellulose) (HPC)): 102 % of control
- T/C [9]: 102 % of control
- T/C (dose: 400.0 mg/kg/injection, schedule: Q01DX009 (ip), vehicle: Klucel (hydroxypropylcellulose) (HPC)): 98 % of control

SMILES: Cc1coc(NS(=O)(=O)c2ccc(N=Nc3c(N)[nH]c(=S)[nH]c3=O)cc2)c1C
- T/C [1]: 113 % of control
- T/C [2]: 107 % of control
- T/C [3]: 101 % of control

SMILES: CC(=O)OCC1OC(OC(C)=O)C(NC(=O)N(C)C(C)=O)C(OC(C)=O)C1OC(C)=O (configuration not stated)
- T/C [8]: 100 % of control
- T/C [9]: 100 % of control
- T/C (dose: 400.0 mg/kg/injection, schedule: Q04DX003 (ip), vehicle: Klucel (hydroxypropylcellulose) (HPC)): 97 % of control

SMILES: N=c1ccn(C(=O)C2=Cc3cc(Cl)ccc3OC2)cc1
- T/C (dose: 100.0 mg/kg/injection, schedule: Q01DX009 (ip), vehicle: saline with Tween-80): 92 % of control
- T/C (dose: 200.0 mg/kg/injection, schedule: Q01DX009 (ip), vehicle: saline with Tween-80): 102 % of control

SMILES: O=P(O)(O)O
- T/C (dose: 75.0 mg/kg/injection, schedule: Q04DX003 (ip), vehicle: saline): 93 % of control
- T/C (dose: 150.0 mg/kg/injection, schedule: Q04DX003 (ip), vehicle: saline): 98 % of control
- T/C (dose: 300.0 mg/kg/injection, schedule: Q04DX003 (ip), vehicle: saline): 103 % of control

SMILES: CC(=O)OCC(NC(=O)N(CCCl)N=O)C(OC(C)=O)C(OC(C)=O)C(COC(C)=O)OC(C)=O (configuration not stated)
- T/C (dose: 9.0 mg/kg/injection, schedule: Q01DX001 (ip), vehicle: saline + alcohol): 266 % of control
- T/C (dose: 13.0 mg/kg/injection, schedule: Q01DX001 (ip), vehicle: saline + alcohol): 179 % of control
- T/C (dose: 20.0 mg/kg/injection, schedule: Q01DX001 (ip), vehicle: saline + alcohol): 282 % of control

SMILES: CCN(CC)c1ccc2c(c1)Cc1ccccc1-2
- T/C (dose: 100.0 mg/kg/injection, schedule: Q04DX003 (ip), vehicle: saline with Tween-80): 100 % of control
- T/C (dose: 200.0 mg/kg/injection, schedule: Q04DX003 (ip), vehicle: saline with Tween-80): 98 % of control
- T/C (dose: 400.0 mg/kg/injection, schedule: Q04DX003 (ip), vehicle: saline with Tween-80): 100 % of control

SMILES: CCOc1cc(/C=N\Nc2nncn2N)c(C)cc1N(CCCl)CCCl
- T/C (dose: 1.3 mg/kg/injection, schedule: Q01DX015 (ip), vehicle: carboxymethylcellulose (CMC)): 107 % of control
- T/C (dose: 1.5 mg/kg/injection, schedule: Q01DX015 (ip), vehicle: carboxymethylcellulose (CMC)): 120 % of control
- T/C (dose: 2.6 mg/kg/injection, schedule: Q01DX015 (ip), vehicle: carboxymethylcellulose (CMC)): 100 % of control
- T/C (dose: 15.0 mg/kg/injection, schedule: Q01DX015 (ip), vehicle: carboxymethylcellulose (CMC)): 102 % of control and 109 % of control
- T/C (dose: 22.0 mg/kg/injection, schedule: Q01DX001 (ip), vehicle: carboxymethylcellulose (CMC)): 118 % of control
- T/C (dose: 50.0 mg/kg/injection, schedule: Q01DX001 (ip), vehicle: carboxymethylcellulose (CMC)): 110 % of control
- T/C (dose: 100.0 mg/kg/injection, schedule: Q01DX001 (ip), vehicle: carboxymethylcellulose (CMC)): 123 % of control
- T/C (dose: 200.0 mg/kg/injection, schedule: Q01DX001 (ip), vehicle: carboxymethylcellulose (CMC)): 89 % of control

SMILES: CCCCCCCCCCCc1n(Cc2ccccc2)cc[n+]1C
- T/C (dose: 0.5 mg/kg/injection, schedule: Q01DX001 (ip), vehicle: saline): 101 % of control
- T/C (dose: 0.5 mg/kg/injection, schedule: Q01DX009 (ip), vehicle: acetone): 111 % of control
- T/C (dose: 1.0 mg/kg/injection, schedule: Q01DX001 (ip), vehicle: saline): 95 % of control
- T/C (dose: 1.0 mg/kg/injection, schedule: Q01DX009 (ip), vehicle: acetone): 118 % of control
- T/C (dose: 2.0 mg/kg/injection, schedule: Q01DX001 (ip), vehicle: saline): 101 % of control
- T/C (dose: 2.0 mg/kg/injection, schedule: Q04DX003 (ip), vehicle: saline): 95 % of control
- T/C (dose: 8.0 mg/kg/injection, schedule: Q01DX001 (ip), vehicle: saline): 103 % of control

SMILES: Cc1ccc(C(C)C)c(OCC(O)CN2CC=CCC2)c1 (configuration not stated)
- T/C [4]: 100 % of control
- T/C [5]: 112 % of control
- T/C [6]: 99 % of control and 109 % of control

SMILES: OCC1CC(n2cnc3c(NO)ncnc32)C(O)C1O (configuration not stated)
- T/C (dose: 25.0 mg/kg/injection, schedule: Q01DX009 (ip), vehicle: saline with Tween-80): 103 % of control
- T/C (dose: 50.0 mg/kg/injection, schedule: Q01DX009 (ip), vehicle: saline with Tween-80): 92 % of control
- T/C (dose: 75.0 mg/kg/injection, schedule: Q01DX009 (ip), vehicle: saline with Tween-80): 86 % of control

SMILES: Nn1c(-c2ccccc2)c[n+]2ccccc12
- T/C (dose: 75.0 mg/kg/injection, schedule: Q01DX001 (ip), vehicle: other): 101 % of control
- T/C (dose: 150.0 mg/kg/injection, schedule: Q01DX001 (ip), vehicle: other): 97 % of control
- T/C (dose: 300.0 mg/kg/injection, schedule: Q01DX001 (ip), vehicle: other): 92 % of control

SMILES: OCC1C2CCC(C2)C1c1ccccc1 (configuration not stated)
- T/C (dose: 9.38 mg/kg/injection, schedule: Q01DX001 (ip), vehicle: saline): 103 % of control

SMILES: CC(=O)Nc1ccc(N=Nc2ccccc2)cc1C
- T/C [7]: 100 % of control
- T/C [8]: 96 % of control
- T/C [9]: 96 % of control

SMILES: CCC(=O)c1ccc(N=Nc2c(N)nc(N)nc2N)cc1
- T/C [1]: 110 % of control
- T/C [2]: 94 % of control

SMILES: CCCCCCOC(=O)Nc1ccc(S(=O)(=O)NC2CCCCC2)cc1
- T/C [1]: 94 % of control
- T/C [2]: 90 % of control
- T/C [3]: 95 % of control

SMILES: COc1ccc(OC)c(CC=O)c1
- T/C (dose: 100.0 mg/kg/injection, schedule: Q04DX003 (ip), vehicle: alcohol): 97 % of control
- T/C (dose: 200.0 mg/kg/injection, schedule: Q04DX003 (ip), vehicle: alcohol): 101 % of control
- T/C (dose: 400.0 mg/kg/injection, schedule: Q04DX003 (ip), vehicle: alcohol): 103 % of control

— PubChem BioAssay AID248 (DTP/NCI, 2004)
